In patent publication US8563254B2, “Biomarkers of tumor pharmacodynamic response” (Novartis AG, priority 2009, dated 2013):

Experiments:
Type in all cases: cell-based, human
[1] = tested on: GTL-16 cells; experiment: Western blot of total protein lysates, GTL-16; conditions: GTL-16, 0.3 μM, 16 hr and 24 hr
Method: (§1) Total protein lysates were prepared from the GTL-16 and A375 cells with RIPA lysis buffer (Upstate, Millipore Corporation, Charlottesville, Va., USA). Cells were washed with PBS and 500 ul of ice-cold RIPA buffer, containing protease inhibitor cocktail tablet (Roche Diagnostic GmbH, Mannheim, Germany) and phosphatase inhibitors (Sigma-Aldrich, Inc., St. Louis, Mo., USA), was added to each plate on ice. After 15 min the cells were scrapped from the plate surface and spun at 16000 RPM for 10 min at 4° C. The supernatant was collected and frozen at −80° C. Nuclear protein fractions were prepared by the NE-PER nuclear and cytoplasmic extraction kit (Pierce Biotechnology, Rockford, Ill., USA). Proteins were quantified by bicinchoninic acid assay (Pierce Biotechnology, Rockford, Ill., USA) for Western blotting. Primary antibodies specific for NFκB p65, cREL, p-ERK1/2, p-c-jun, ERK1 and Jun were purchased from Santa Cruz Biotechnology (Santa Cruz Biotechnology, Inc., Santa Cruz, Calif., USA) with the exception of Hsp70 and TBP (nuclear loading control), which were obtained from StressGen (StressGen, Assay Designs, Inc., Aim Arbor, Mich., USA) and Abcam (Abcam Inc., Cambridge, Mass., USA), respectively. 4-12% Bis-Tris SDS-PAGE, denaturing, non-reducing gels were loaded with 30 μg of total protein, a SeeBlue2Plus pre-stained protein standard and MES SDS running buffer were utilized for the electrophoretic separation in a XCell SureLock™ Mini-Cell (Invitrogen Corporation, Inc., Carlsbad, Calif., USA). An iBlot™ gel transfer PVDF stack with iBlot™ gel transfer system (Invitrogen) was used. An Odyssey Infrared Imaging System was used to detect the immunocomplex (Li-COR Biotechnologies, Inc., Lincoln, Nebr., USA). Li-COR blocking buffer was used to limit cross-reactivity. Membranes were incubated at 4° C. overnight in the primary antibody diluted in blocking buffer, followed by 1 hr room temperature incubation with a secondary IgG antibody (Li-COR IR dye, Li-COR).

[2] = tested on: A375 cells; experiment: Western blot of total protein lysates, A375; conditions: A375, 0.3 μM, 16 hr and 24 hr
Method: as §1

[3] = tested on: A375 cells; experiment: Cell viability by CellTiter-Glo, A375; conditions: A375, 0.3 μM, 72 hr treatment time
Method: (§2) Cell Viability was measured by CellTiter-Glo assay (Promega U.S., Madison, Wis., USA). GTL-16 and A375 cells were grown in 6-well poly-D-lysine coated plates (BD Biosciences). Cells were treated with NVP-AUY922. Cell viability was measured 16, 24, 48 and 72 hr post-treatment with Hsp90 inhibitor. Briefly supernatants were removed and cells were washed with 3 ml of PBS, pH 7.4. 1 ml of a two component CellTiter-Glo reagent was added to each well and the plates were shaken vigorously for 2 min, followed by 10 min incubation at room temperature in the dark. Luminescent signal intensity was recorded with an integration time set between 0.25 and 1 s/well.

[4] = tested on: A375 cells; experiment: Multiplexed bead-based 27-plex cytokine panel, A375 culture supernatants; conditions: 48 hr
Method: A malignant melanoma cell line A375 (American Type Culture Collection, Manassas, Va., USA) and gastric cancer cell line, GTL-16 (Prof Silvia Giordano, Institute for Cancer Research and Treatment, Turin, Italy) were cultured in RPMI 1640 supplemented with 10% FBS and 1% penicillin-streptomycin at 37° C. in 5% CO2 (GIBCO reagents, Invitrogen Corporation, Carlsbad, Calif., USA). Cell numbers were determined by ViCell™ XR Cell Viability Analyzer 2.03 (Beckman Coulter, Inc., Fullerton, Calif., USA). Cells were seeded in poly-D-lysine coated plates (BIOCOAT Cell Environments, Becton Dickinson Biosciences, San Jose, Calif., USA).
Human IL-8 levels in cell culture supernatants treated with NVP-AUY922 were initially assessed as part of a multiplexed bead-based cytokine panel (hu 27-plex panel I, Bio-rad Laboratories, Hercules, Calif., USA) with a BioPlex Suspension Array System (Bio-rad). Human IL-8 and mouse KC levels in serum derived from GTL-16 and A375 tumor-bearing mice treated with NVP-AUY922 were measured by single-plex cytokine bead-based assay (Milliplex, Millipore, Billerica, Mass., USA). The BioPlex system uses a liquid suspension array of beads. The beads align in a single file through a flow cell to the detector, where a red classification laser at a wavelength of 635 nm and a green reporter laser at a wavelength of 532 nm are used to identify each bead's spectral address and associated reporter signal, respectively.
In a screen for candidate secreted markers of Hsp90 inhibition, cell culture supernatants were collected from GTL-16 gastric carcinoma and A375 melanoma cells that were washed and treated for 48 hr with 1 μM NVP-AUY922 in fresh culture medium. These samples were analyzed by a multiplexed cytokine bead-based assay that included a panel of 27 human cytokines, the results of which are shown in FIG. 1. […] In addition to this empirical investigation using the bead-based immunoassay panel, in silica data mining was undertaken to identify secreted proteins that were regulated by previously reported Hsp90 client proteins; this investigation pointed to a number of candidates, including IL-8, consistent with the empirical results.

[5] = tested on: GTL-16 cells; experiment: Cell viability by CellTiter-Glo, GTL-16; conditions: GTL-16, 0.3 μM, 72 hr treatment time
Method: as §2

CCNC(=O)c1noc(-c2cc(C(C)C)c(O)cc2O)c1-c1ccc(CN2CCOCC2)cc1 [NVP-AUY922, 5-(2,4-Dihydroxy-5-isopropyl-phenyl)-4-(4-morhpolin-4-ylmethyl-phenyl)-isoxazole-3-carboxylic acid ethylamide]
Hsp70 induction [1]: induction was observed
levels of phospho-ERK1/2 and phospho-c-Jun [1]: significantly diminished
total ERK and c-Jun levels [1]: unaffected
total cellular levels of NFκB p65 and c-REL [1]: essentially unchanged
Hsp70 induction [2]: induction was observed
levels of phospho-ERK1/2 and phospho-c-Jun [2]: significantly diminished
total ERK and c-Jun levels [2]: unaffected
total cellular levels of NFκB p65 and c-REL [2]: essentially unchanged
cell viability over time [3]: steadily declines
IL-2 levels ([4]; A375, 1 μM): increased
accumulation of IL-1ra, IL-8, MCP-1 (MCAF) and VEGF ([4]; A375, 1 μM): decreased accumulation
accumulation of other detectable cytokines ([4]; A375, 1 μM): remained unchanged
IL-8 accumulation decreased ([4]; A375 culture supernatant, 1 μM, multiplexed assay): > 70%
cell viability over time [5]: steadily declines
